From EP0670711B1, “ANTIFUNGAL MOUTHCARE COMPOSITIONS” (AMBI Inc., priority 1992, dated 1994)
In brackets after ≈: the same amount, converted by molar mass. Read-outs that look alike come from different tables or passages of the source. Blank lines part the entries; values can stand above or below the compound they belong to.

Columns and labels:
Assay type in all cases: cell-based
Strep. agalactiæ = assay: nominal inhibitory concentration (NIC) assay; settings: read-out: NIC
Strep. sanguis = assay: nominal inhibitory concentration (NIC) assay; settings: read-out: NIC
Strep.mutans = assay: nominal inhibitory concentration (NIC) assay; settings: Streptococcus mutans, read-out: NIC
Strep. milleri = assay: nominal inhibitory concentration (NIC) assay; settings: read-out: NIC
Strep. mitis = assay: nominal inhibitory concentration (NIC) assay; settings: Streptococcus mitis, read-out: NIC
Strep mitior = assay: nominal inhibitory concentration (NIC) assay; settings: read-out: NIC
Strep. salivarius = assay: nominal inhibitory concentration (NIC) assay; settings: Streptococcus salivarius, read-out: NIC
Strep.pyogenes = assay: nominal inhibitory concentration (NIC) assay; settings: Streptococcus pyogenes, read-out: NIC
Staph.aureus = assay: nominal inhibitory concentration (NIC) assay; settings: Staphylococcus aureus, read-out: NIC
A actinomyces NCTC 9709 = assay: zone diffusion assay; settings: solution with 500ppm of each agent
From the text: (§1) The assay was repeated for each of cetyl pyridinium chloride, chlorhexidine or triclosan individually. […]

C albicans NCTC 3089 = assay: zone diffusion assay; settings: solution with 500ppm of each agent
From the text: as §1

C kefyr NCTC 3106 = assay: zone diffusion assay; settings: solution with 500ppm of each agent
From the text: as §1

C tropicalis NCTC 3114 = assay: zone diffusion assay; settings: solution with 500ppm of each agent
From the text: as §1

F nucleatum NCTC 10562 = assay: zone diffusion assay; settings: solution with 500ppm of each agent
From the text: as §1

S mutans NCTC 11061 = assay: zone diffusion assay; settings: solution with 500ppm of each agent
From the text: as §1

S sanguis NCTC 10904 = assay: zone diffusion assay; settings: solution with 500ppm of each agent
From the text: as §1

W recta NCTC 11489 = assay: zone diffusion assay; settings: solution with 500ppm of each agent
From the text: as §1

G.vaginalis = assay: nominal inhibitory concentration (NIC) assay; settings: Gardnerella vaginalis, read-out: NIC
Lacto odontolyticus = assay: nominal inhibitory concentration (NIC) assay; settings: read-out: NIC
Act. odontolyticus = assay: nominal inhibitory concentration (NIC) assay; settings: Schaalia odontolytica, read-out: NIC
Act. israelii = assay: nominal inhibitory concentration (NIC) assay; settings: Actinomyces israelii; Act. israelii; read-out: NIC
Act. naeslundii = assay: nominal inhibitory concentration (NIC) assay; settings: Actinomyces naeslundii, read-out: NIC
Act. actinomycetem = assay: nominal inhibitory concentration (NIC) assay; settings: read-out: NIC
Fuso. nucleatum = assay: nominal inhibitory concentration (NIC) assay; settings: Fusobacterium nucleatum, read-out: NIC
Bact. intermedius = assay: nominal inhibitory concentration (NIC) assay; settings: Prevotella intermedia, read-out: NIC
Peptostrepto. micros = assay: nominal inhibitory concentration (NIC) assay; settings: read-out: NIC
Porph. gingivalis = assay: nominal inhibitory concentration (NIC) assay; settings: Porphyromonas gingivalis, read-out: NIC
Bact. ureolyticus = assay: nominal inhibitory concentration (NIC) assay; settings: read-out: NIC
Candida albicans = assay: nominal inhibitory concentration (NIC) assay; settings: read-out: NIC
Candida kefyr = assay: nominal inhibitory concentration (NIC) assay; settings: Kluyveromyces marxianus, read-out: NIC
Candida tropicalis = assay: nominal inhibitory concentration (NIC) assay; settings: read-out: NIC
[1] = test system: all the organisms shown in the Example 25 Table 1; assay: NIC assay, summary over all organisms of Table 1; settings: read-out: levels needed to inhibit all the desired oral microrganisms
Candida organisms = assay: NIC assay, summary for Candida

MIC (Strep. agalactiæ; Strep. agalactiæ): 0.41 µg/mL (≈ 0.811 µM)
MIC (Strep. sanguis; Strep. sanguis): 0.86 µg/mL (≈ 1.7 µM)
MIC (Strep.mutans; Strep.mutans): 3.94 µg/mL (≈ 7.79 µM)
MIC (Strep. milleri; Strep. milleri): 1.58 µg/mL (≈ 3.13 µM)
MIC (Strep. mitis; Strep. mitis): 1.5 µg/mL (≈ 2.97 µM)
MIC (Strep mitior; Strep mitior): 4.55 µg/mL (≈ 9 µM)
MIC (Strep. salivarius; Strep. salivarius): 1.44 µg/mL (≈ 2.85 µM)
MIC (Strep.pyogenes; Strep.pyogenes): 0.16 µg/mL (≈ 0.317 µM)
MIC (Staph.aureus; Staph.aureus): 0.54 µg/mL (≈ 1.07 µM)
MIC (G.vaginalis; G.vaginalis): 1.3 µg/mL (≈ 2.57 µM)
MIC (Lacto odontolyticus; Lacto odontolyticus): 1.88 µg/mL (≈ 3.72 µM)
MIC (Act. odontolyticus; Act. odontolyticus): 3.37 µg/mL (≈ 6.67 µM)
MIC (Act. israelii): 4.11 µg/mL (≈ 8.13 µM)
MIC (Act. naeslundii; Act. naeslundii): 2.01 µg/mL (≈ 3.98 µM)
MIC (Act. actinomycetem; Act. actinomycetem): 0.53 µg/mL (≈ 1.05 µM)
MIC (Fuso. nucleatum; Fuso. nucleatum): 0.64 µg/mL (≈ 1.27 µM)
MIC (Bact. intermedius; Bact. intermedius): 2.49 µg/mL (≈ 4.93 µM)
MIC (Peptostrepto. micros; Peptostrepto. micros): 8.46 µg/mL (≈ 16.7 µM)
MIC (Porph. gingivalis; Porph. gingivalis): 2.36 µg/mL (≈ 4.67 µM)
MIC (Bact. ureolyticus; Bact. ureolyticus): 0.69 µg/mL (≈ 1.37 µM)
MIC (Candida albicans): 1.71 µg/mL (≈ 3.38 µM)
MIC (Candida kefyr; Candida kefyr): 0.42 µg/mL (≈ 0.831 µM)
MIC (Candida tropicalis): 0.98 µg/mL (≈ 1.94 µM)
MIC [1]: ~8.46 µg/mL (≈ 16.7 µM)
MIC (Candida organisms; Candida organisms, read-out: levels for Candida inhibition): 1.71 µg/mL (≈ 3.38 µM)
SMILES: [H]/N=C(\N/C(=N/[H])NCCCCCCNC(=N)NC(=N)Nc1ccc(Cl)cc1)Nc1ccc(Cl)cc1 [CHX, chlorhexidine]
mean zones (A actinomyces NCTC 9709): 35.68 mm
mean zones (C albicans NCTC 3089): 14.93 mm
mean zones (C kefyr NCTC 3106): 17.03 mm
mean zones (C tropicalis NCTC 3114): 17.36 mm
mean zones (F nucleatum NCTC 10562): 36.97 mm
mean zones (S mutans NCTC 11061): 29.68 mm
mean zones (S sanguis NCTC 10904): 22.76 mm
mean zones (W recta NCTC 11489): 32.35 mm
inhibitory activity against candida species (Candida organisms; result in words, NIC assay): effective

SMILES: CCCCCCCCCCCCCCCC[n+]1ccccc1 [CPC, cetyl pyridinium chloride]
MIC (Strep. agalactiæ): 0.78 µg/mL
MIC (Strep. sanguis): 2.12 µg/mL
MIC (Strep.mutans): 3.1 µg/mL
MIC (Strep. milleri): 4.58 µg/mL
MIC (Strep. mitis): 2.23 µg/mL
MIC (Strep mitior): 1.22 µg/mL
MIC (Strep. salivarius): 2.36 µg/mL
MIC (Strep.pyogenes): 0.78 µg/mL
MIC (Staph.aureus): 0.66 µg/mL
mean zones (A actinomyces NCTC 9709): 19.41 mm
mean zones (C albicans NCTC 3089): 9.79 mm
mean zones (C kefyr NCTC 3106): 10.43 mm
mean zones (C tropicalis NCTC 3114): 10.39 mm
mean zones (F nucleatum NCTC 10562): 18.99 mm
mean zones (S mutans NCTC 11061): 17.05 mm
mean zones (S sanguis NCTC 10904): 14.44 mm
mean zones (W recta NCTC 11489): 17.15 mm
MIC (G.vaginalis): 0.3 µg/mL
MIC (Lacto odontolyticus): 0.83 µg/mL
MIC (Act. odontolyticus): 1.23 µg/mL
MIC (Act. naeslundii): 4.61 µg/mL
MIC (Act. actinomycetem): 1.02 µg/mL
MIC (Fuso. nucleatum): 0.82 µg/mL
MIC (Bact. intermedius): 4.68 µg/mL
MIC (Peptostrepto. micros): 4.96 µg/mL
MIC (Porph. gingivalis): 0.94 µg/mL
MIC (Bact. ureolyticus): 0.56 µg/mL
MIC (Candida kefyr): 0.61 µg/mL
MIC (Candida tropicalis): 0.48 µg/mL
